The assay concerns the target GLP-1R (Homo sapiens, UniProt P43220). In words: GLP-1R Activation - cAMP Assay. In kind it is cell-based. As to conditions: each compound run on one of the two cAMP assays (Assay 1 or Assay 2, not specified). The procedure, abridged:
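CHO cells stably expressing GLP-1R, plated at 1,000 cells/well overnight, then equilibrated 1 h in HBSS with 20 mM Hepes and 0.1% BSA. Agonist added as 10-point dose response for 30 min at 37 °C. cAMP measured by HTRF (Cisbio Gs Dynamic kit); EC50 from sigmoidal fit.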
(In general: Cyclic AMP is a second messenger, typically raised through Gs and lowered through Gi signalling.)

Where [1] appears, read: cAMP increase in CHO cells stably expressing GLP-1R.

Structures are written as SMILES.

By EC50 is commonly meant the concentration at which the effect is half-maximal.

Sequence of GLP-1R (P43220 24-463): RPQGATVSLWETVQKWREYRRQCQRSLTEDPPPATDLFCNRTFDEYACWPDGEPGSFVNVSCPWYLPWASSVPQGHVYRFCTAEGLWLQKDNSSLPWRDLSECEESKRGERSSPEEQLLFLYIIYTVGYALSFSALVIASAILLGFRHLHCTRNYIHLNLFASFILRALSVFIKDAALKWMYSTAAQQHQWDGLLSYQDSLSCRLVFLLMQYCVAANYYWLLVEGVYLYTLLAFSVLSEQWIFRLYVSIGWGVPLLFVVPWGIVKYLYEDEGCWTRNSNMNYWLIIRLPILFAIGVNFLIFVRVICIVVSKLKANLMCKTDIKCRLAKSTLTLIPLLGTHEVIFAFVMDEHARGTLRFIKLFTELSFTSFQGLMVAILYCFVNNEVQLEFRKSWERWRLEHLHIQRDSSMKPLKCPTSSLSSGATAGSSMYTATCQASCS

The molecule `CC1(C)COC[C@H]1n1c(Cc2cc(F)c(-c3cccc(OCc4ccc(C5CC5)cc4)n3)cc2F)nc2ccc(C(=O)O)cc21` [Example 431, (S)-2-(4-(6-((4-cyclopropylbenzyl)oxy)pyridin-2-yl)-2,5-difluorobenzyl)-1-(4,4-dimethyltetrahydrofuran-3-yl)-1H-benzo[d]imidazole-6-carboxylic acid] came in with an EC50 under setting [1] of 0.377 nM. For the molecule `O=C(O)c1ccc2nc(Cc3cc(F)c(-c4cccc(OCc5cnc(-n6ccnn6)cc5Cl)n4)cc3F)n(CCOC3CC3)c2c1` [Example 562, 2-(4-(6-((4-chloro-6-(1H-1,2,3-triazol-1-yl)pyridin-3-yl)methoxy)pyridin-2-yl)-2,5-difluorobenzyl)-1-(2-cyclopropoxyethyl)-1H-benzo[d]imidazole-6-carboxylic acid], under setting [1], a half-maximal response (EC50) required 0.207 nM.

Regarding `Cc1cc(Cc2nc3c(F)cc(C(=O)O)cc3n2[C@@H]2COCC2(C)C)c(Cl)cc1-c1ccc(F)c(OCc2ccc(C#N)cc2F)n1` [Example 138, (S)-2-(2-chloro-4-(6-((4-cyano-2-fluorobenzyl)oxy)-5-fluoropyridin-2-yl)-5-methylbenzyl)-1-(4,4-dimethyltetrahydrofuran-3-yl)-4-fluoro-1H-benzo[d]imidazole-6-carboxylic Acid], a half-maximal effect under setting [1] (EC50) was put at 0.136 nM. `COC(=O)N1Cc2ccc(COc3cccc(-c4cc(F)c(Cc5nc6c(F)cc(C(=O)O)cc6n5[C@@H]5COCC5(C)C)cc4F)n3)cc2C1` [Example 263, (S)-2-(2,5-difluoro-4-(6-((2-(methoxycarbonyl)isoindolin-5-yl)methoxy)pyridin-2-yl)benzyl)-1-(4,4-dimethyltetrahydrofuran-3-yl)-4-fluoro-1H-benzo[d]imidazole-6-carboxylic acid]: the midpoint of the response under setting [1], the EC50, lay at 0.709 nM. The same measure, in the same setting: to `Cc1cc(Cc2nc3c(F)cc(C(=O)O)cc3n2[C@@H]2COCC2(C)C)c(F)cc1-c1ccnc(OCc2ccc(Cl)cc2)n1` [Example 211, (S)-2-(4-(2-((4-chlorobenzyl)oxy)pyrimidin-4-yl)-2-fluoro-5-methylbenzyl)-1-(4,4-dimethyltetrahydrofuran-3-yl)-4-fluoro-1H-benzo[d]imidazole-6-carboxylic acid] belongs 0.258 nM. Consider `CC(=O)N1C[C@@H](F)[C@H](n2c(Cc3cc(F)c(-c4cccc(OCc5ccc(C#N)cc5F)n4)cc3F)nc3ccc(C(=O)O)cc32)C1` [Example 40], for which, for the setting “[…]”, the midpoint of the response, the EC50, lay at 155 nM. The molecule `CC1(C)COC[C@H]1n1c(Cc2c(F)cc(-c3ccc(Cl)c(OCc4ccc(C#N)cc4F)n3)c(F)c2F)nc2ccc(C(=O)O)cc21` [Example 416, (S)-2-(4-(5-chloro-6-((4-cyano-2-fluorobenzyl)oxy)pyridin-2-yl)-2,3,6-trifluorobenzyl)-1-(4,4-dimethyltetrahydrofuran-3-yl)-1H-benzo[d]imidazole-6-carboxylic acid] yielded an EC50 under setting [1] of 0.235 nM. The same measure, in the same setting: for `COC[C@H]1COC[C@H]1n1c(Cc2cc(F)c(-c3ccc(F)c(OCc4ccc(Cl)cc4F)c3)cc2F)nc2ccc(C(=O)O)cc21` [Example 559, 2-((3′-((4-chloro-2-fluorobenzyl)oxy)-2,4′,5-trifluoro-[1,1′-biphenyl]-4-yl)methyl)-1-((3S,4S)-4-(methoxymethyl)tetrahydrofuran-3-yl)-1H-benzo[d]imidazole-6-carboxylic acid] the value was 0.195 nM. The molecule `CC1(C)COCC1n1c(Cc2cc(F)c(-c3cccc(OCc4ccc(Cl)cc4)n3)cc2F)nc2ccc(C(=O)O)cc21` (stereo not drawn) [Example 387, 2-(4-(6-((4-chlorobenzyl)oxy)pyridin-2-yl)-2,5-difluorobenzyl)-1-(4,4-dimethyltetrahydrofuran-3-yl)-1H-benzo[d]imidazole-6-carboxylic acid] displayed an EC50 under setting [1] of 0.043 nM. `Cn1cc(-c2cc(F)c(COc3cccc(-c4cc(F)c(Cc5nc6ccc(C(=O)O)cc6n5[C@@H]5COCC5(C)C)cc4F)n3)cn2)cn1` (single isomer, unassigned) [Example 58] came in with an EC50 under setting [1] of 0.58 nM.

In the case of `COCCn1c(Cc2cc(F)c(-c3cccc(OCc4ccc(-c5cnn(C)c5)nc4)n3)cc2F)nc2ccc(C(=O)O)cc21` [Example 108, 2-(2,5-difluoro-4-(6-((6-(1-methyl-1H-pyrazol-4-yl)pyridin-3-yl)methoxy)pyridin-2-yl)benzyl)-1-(2-methoxyethyl)-1H-benzo[d]imidazole-6-carboxylic Acid], the EC50 under setting [1] came to 3.28 nM. Take `CC1(C)COC[C@H]1n1c(Cc2cc(F)c(-c3cccc(OCc4ccc(F)cc4Cl)n3)cc2F)nc2ccc(C(=O)O)cc21` [Example 464, (S)-2-(4-(6-((2-chloro-4-fluorobenzyl)oxy)pyridin-2-yl)-2,5-difluorobenzyl)-1-(4,4-dimethyltetrahydrofuran-3-yl)-1H-benzo[d]imidazole-6-carboxylic acid]: it took 0.172 nM to reach a half-maximal effect under setting [1] (EC50). The same measure, in the same setting: for `CC1(C)COC[C@H]1n1c(Cc2ccc(-c3ccc(F)c(OCc4ccc(-n5ccnn5)cc4F)n3)cc2F)nc2ccc(C(=O)O)cc21` [Example 236, (S)-1-(4,4-dimethyltetrahydrofuran-3-yl)-2-(2-fluoro-4-(5-fluoro-6-((2-fluoro-4-(1H-1,2,3-triazol-1-yl)benzyl)oxy)pyridin-2-yl)benzyl)-1H-benzo[d]imidazole-6-carboxylic acid] the value was 0.203 nM; for `Cn1nnc2cc(COc3cccc(-c4cc(F)c(Cc5nc6ccc(C(=O)O)cc6n5[C@@H]5COCC5(C)C)cc4F)n3)ccc21` [Example 512, (S)-2-(2,5-difluoro-4-(6-((1-methyl-1H-benzo[d][1,2,3]triazol-5-yl)methoxy)pyridin-2-yl)benzyl)-1-(4,4-dimethyltetrahydrofuran-3-yl)-1H-benzo[d]imidazole-6-carboxylic acid], 0.515 nM; for `COC[C@H]1COC[C@H]1n1c(Cc2cc(F)c(-c3ccc(F)c(OCc4ccc(C#N)cc4)n3)cc2F)nc2ccc(C(=O)O)cc21` [Example 467, 2-(4-(6-((4-cyanobenzyl)oxy)-5-fluoropyridin-2-yl)-2,5-difluorobenzyl)-1-((3S,4S)-4-(methoxymethyl)tetrahydrofuran-3-yl)-1H-benzo[d]imidazole-6-carboxylic acid], 0.077 nM. Turning to `CC1(C)COC[C@H]1n1c(Cc2cc(F)c(-c3cccc(OCc4ccc(Cl)c(Cl)c4)n3)cc2F)nc2ccc(C(=O)O)cc21` [Example 393, (S)-2-(4-(6-((3,4-dichlorobenzyl)oxy)pyridin-2-yl)-2,5-difluorobenzyl)-1-(4,4-dimethyltetrahydrofuran-3-yl)-1H-benzo[d]imidazole-6-carboxylic acid], the EC50 under setting [1] was found to be 0.652 nM. In turn, `COCCn1c(Cc2cc(F)c(-c3cccc(OCc4ccc(-n5ccnn5)cc4F)n3)cc2F)nc2ccc(C(=O)O)c(F)c21` [Example 374, 2-(2,5-difluoro-4-(6-((2-fluoro-4-(1H-1,2,3-triazol-1-yl)benzyl)oxy)pyridin-2-yl)benzyl)-7-fluoro-1-(2-methoxyethyl)-1H-benzo[d]imidazole-6-carboxylic acid] gave an EC50 under setting [1] of 0.571 nM. `N#Cc1ccc(COc2cccc(-c3cc(F)c(Cc4nc5ccc(C(=O)O)cc5n4C4COC[C@@H]4CO)cc3F)n2)c(F)c1` (mixture of isomers) [Example 216, 2-(4-(6-((4-cyano-2-fluorobenzyl)oxy)pyridin-2-yl)-2,5-difluorobenzyl)-1-((3S,4S)-4-(hydroxymethyl)tetrahydrofuran-3-yl)-1H-benzo[d]imidazole-6-carboxylic acid] displayed a half-maximal effective concentration (EC50) under setting [1] of 0.056 nM. The same measure, in the same setting: for `COCCn1c(Cc2cc(F)c(-c3cccc(OCc4cnc(-n5nnc6c5CCCC6)cc4Cl)n3)cc2F)nc2ccc(C(=O)O)cc21` [Example 568, 2-(4-(6-((4-chloro-6-(4,5,6,7-tetrahydro-1H-benzo[d][1,2,3]triazol-1-yl)pyridin-3-yl)methoxy)pyridin-2-yl)-2,5-difluorobenzyl)-1-(2-methoxyethyl)-1H-benzo[d]imidazole-6-carboxylic acid] the value was 1.56 nM; for `COCCn1c(Cc2cc(F)c(-c3cccc(OCc4ccc(OCC(F)(F)F)nc4)n3)cc2F)nc2ccc(C(=O)O)cc21` [Example 35, 2-(2,5-difluoro-4-(6-((6-(2,2,2-trifluoroethoxy)pyridin-3-yl)methoxy)pyridin-2-yl)benzyl)-1-(2-methoxyethyl)-1H-benzo[d]imidazole-6-carboxylic Acid], 2.67 nM. On to `N#Cc1ccc(COc2cccc(-c3cc(F)c(Cc4nc5ccc(C(=O)O)cc5n4[C@H]4COC[C@@H]4C4CC4)cc3F)n2)c(F)c1` [Example 189, 2-(4-(6-((4-cyano-2-fluorobenzyl)oxy)pyridin-2-yl)-2,5-difluorobenzyl)-1-((3R,4R)-4-cyclopropyltetrahydrofuran-3-yl)-1H-benzo[d]imidazole-6-carboxylic acid], for which it took 0.149 nM to reach a half-maximal effect under setting [1] (EC50). Under setting [1], `COCCn1c(Cc2cc(F)c(-c3cccc(OCc4ccc(C(F)(F)F)nc4Cl)n3)cc2F)nc2ccc(C(=O)O)cc21` [Example 34, 2-(4-(6-((2-chloro-6-(trifluoromethyl)pyridin-3-yl)methoxy)pyridin-2-yl)-2,5-difluorobenzyl)-1-(2-methoxyethyl)-1H-benzo[d]imidazole-6-carboxylic Acid] registered an EC50 of 3.25 nM.

For the molecule `COC[C@H]1COC[C@H]1n1c(Cc2cc(F)c(-c3cccc(OCc4ccc(C#N)cc4F)n3)cc2F)nc2ccc(C(=O)O)cc21` (racemic) [Example 184, 2-(4-(6-((4-cyano-2-fluorobenzyl)oxy)pyridin-2-yl)-2,5-difluorobenzyl)-1-((3S,4S)-4-(methoxymethyl)tetrahydrofuran-3-yl)-1H-benzo[d]imidazole-6-carboxylic Acid], under setting [1], the EC50 came to 0.157 nM. Consider `CC1(C)COC[C@H]1n1c(Cc2cc(F)c(-c3cccc(OCc4ccc(-c5cnn(C(F)F)c5)cc4F)n3)cc2F)nc2ccc(C(=O)O)cc21` [Example 443, (S)-2-(4-(6-((4-(1-(difluoromethyl)-1H-pyrazol-4-yl)-2-fluorobenzyl)oxy)pyridin-2-yl)-2,5-difluorobenzyl)-1-(4,4-dimethyltetrahydrofuran-3-yl)-1H-benzo[d]imidazole-6-carboxylic acid], for which the EC50 under setting [1] turned out to be 0.21 nM.
